Results as given in PubChem BioAssay (NCI).
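Five concentrations, 48 hours, 96-well plates. At the GI50, growth is halved. TGI is the concentration that stops growth completely.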

How the values were obtained:
Assay in all cases: NCI-60 cell line screen, 48 h
EKVX NSCLC = system: EKVX NSCLC
UACC-62 melanoma = system: UACC-62 melanoma
OVCAR-4 ovarian = system: OVCAR-4 ovarian
U251 CNS = system: U251 CNS
SF-539 CNS = system: SF-539 CNS
OVCAR-5 ovarian = system: OVCAR-5 ovarian
MDA-MB-468 breast = system: MDA-MB-468 breast
SW-620 colon = system: SW-620 colon
HOP-92 NSCLC = system: HOP-92 NSCLC
DU-145 prostate = system: DU-145 prostate
ACHN renal = system: ACHN renal
OVCAR-3 ovarian = system: OVCAR-3 ovarian
HOP-62 NSCLC = system: HOP-62 NSCLC
NCI/ADR-RES ovarian = system: NCI/ADR-RES ovarian
HCT-116 colon = system: HCT-116 colon
RPMI-8226 leukemia = system: RPMI-8226 leukemia
KM12 colon = system: KM12 colon
COLO 205 colon = system: COLO 205 colon
UO-31 renal = system: UO-31 renal
LOX IMVI melanoma = system: LOX IMVI melanoma
HL-60(TB) leukemia = system: HL-60(TB) leukemia
T-47D breast = system: T-47D breast
BT-549 breast = system: BT-549 breast
HCC-2998 colon = system: HCC-2998 colon
RXF 393 renal = system: RXF 393 renal
MALME-3M melanoma = system: MALME-3M melanoma
HCT-15 colon = system: HCT-15 colon
786-0 renal = system: 786-0 renal
SK-OV-3 ovarian = system: SK-OV-3 ovarian
OVCAR-8 ovarian = system: OVCAR-8 ovarian
SNB-19 CNS = system: SNB-19 CNS
CCRF-CEM leukemia = system: CCRF-CEM leukemia
K-562 leukemia = system: K-562 leukemia
HT29 colon = system: HT29 colon
IGROV1 ovarian = system: IGROV1 ovarian
SK-MEL-5 melanoma = system: SK-MEL-5 melanoma
PC-3 prostate = system: PC-3 prostate
SF-268 CNS = system: SF-268 CNS
SN12C renal = system: SN12C renal
TK-10 renal = system: TK-10 renal
NCI-H226 lung = system: NCI-H226 lung
CAKI-1 renal = system: CAKI-1 renal
MCF7 breast = system: MCF7 breast
NCI-H522 lung = system: NCI-H522 lung
SR leukemia = system: SR leukemia
NCI-H460 lung = system: NCI-H460 lung
HS 578T breast = system: HS 578T breast
UACC-257 melanoma = system: UACC-257 melanoma
NCI-H23 lung = system: NCI-H23 lung
SNB-75 CNS = system: SNB-75 CNS
MDA-MB-231 breast = system: MDA-MB-231 breast
A549 NSCLC = system: A549 NSCLC
SK-MEL-28 melanoma = system: SK-MEL-28 melanoma
M14 melanoma = system: M14 melanoma
MDA-MB-435 = system: MDA-MB-435
SK-MEL-2 melanoma = system: SK-MEL-2 melanoma
A498 renal = system: A498 renal
SF-295 CNS = system: SF-295 CNS
MOLT-4 leukemia = system: MOLT-4 leukemia

Compound `Cc1cc(N=C2NC(=O)/C(=C/c3cc(C(C)(C)C)c(O)c(C(C)(C)C)c3)S2)n[nH]1` has a GI50 (EKVX NSCLC) of 1.9 µM, a TGI (EKVX NSCLC) of 10.8 µM and a GI50 (UACC-62 melanoma) of 3.58 µM. The TGI (UACC-62 melanoma) was 15.3 µM, the GI50 (OVCAR-4 ovarian) was 3.09 µM and the TGI (OVCAR-4 ovarian) was 17.7 µM. It also gave a GI50 (U251 CNS) of 2.15 µM, a TGI (U251 CNS) of 13.6 µM and a GI50 (SF-539 CNS) of 4.6 µM. It also gave a TGI (SF-539 CNS) of 16.4 µM, a GI50 (OVCAR-5 ovarian) of 5.61 µM and a TGI (OVCAR-5 ovarian) of 19.4 µM. The GI50 (MDA-MB-468 breast) was 2.55 µM, the TGI (MDA-MB-468 breast) was 13.2 µM and the GI50 (SW-620 colon) was 3.71 µM. The TGI (SW-620 colon) was 14.2 µM, the GI50 (HOP-92 NSCLC) was 1.87 µM and the TGI (HOP-92 NSCLC) was 14.7 µM. It also gave a GI50 (DU-145 prostate) of 4.87 µM, a TGI (DU-145 prostate) greater than 100 µM and a GI50 (ACHN renal) of 3.25 µM. It also gave a TGI (ACHN renal) of 14.4 µM, a GI50 (OVCAR-3 ovarian) of 3.68 µM and a TGI (OVCAR-3 ovarian) of 18.1 µM. For the same compound, the GI50 (HOP-62 NSCLC) was 3.67 µM, the TGI (HOP-62 NSCLC) was 21.1 µM and the GI50 (NCI/ADR-RES ovarian) was 1.35 µM. For the same compound, the TGI (NCI/ADR-RES ovarian) was 14.3 µM, the GI50 (HCT-116 colon) was 1.88 µM and the TGI (HCT-116 colon) was 12.8 µM. The GI50 (RPMI-8226 leukemia) was 2.43 µM, the TGI (RPMI-8226 leukemia) was 13.3 µM and the GI50 (KM12 colon) was 4.28 µM. It also gave a TGI (KM12 colon) of 18 µM, a GI50 (COLO 205 colon) of 4.41 µM and a TGI (COLO 205 colon) of 18.9 µM. For the same compound, the GI50 (UO-31 renal) was 2.1 µM, the TGI (UO-31 renal) was 14.5 µM and the GI50 (LOX IMVI melanoma) was 2.29 µM. For the same compound, the TGI (LOX IMVI melanoma) was 14.5 µM, the GI50 (HL-60(TB) leukemia) was 4.27 µM and the TGI (HL-60(TB) leukemia) was 23.8 µM. The GI50 (T-47D breast) was 2.41 µM, the TGI (T-47D breast) was 24.9 µM and the GI50 (BT-549 breast) was 2.63 µM. It also gave a TGI (BT-549 breast) of 12.2 µM, a GI50 (HCC-2998 colon) of 4.22 µM and a TGI (HCC-2998 colon) of 16.4 µM. For the same compound, the GI50 (RXF 393 renal) was 2.19 µM, the TGI (RXF 393 renal) was 11.8 µM and the GI50 (MALME-3M melanoma) was 2.7 µM. It also gave a TGI (MALME-3M melanoma) of 14.2 µM, a GI50 (HCT-15 colon) of 1.5 µM and a TGI (HCT-15 colon) of 13.2 µM. For the same compound, the GI50 (786-0 renal) was 3.81 µM, the TGI (786-0 renal) was 15.7 µM and the GI50 (SK-OV-3 ovarian) was 5.58 µM. The TGI (SK-OV-3 ovarian) was 21.1 µM, the GI50 (OVCAR-8 ovarian) was 3.69 µM and the TGI (OVCAR-8 ovarian) was 19.6 µM. The GI50 (SNB-19 CNS) was 3.26 µM, the TGI (SNB-19 CNS) was 15.8 µM and the GI50 (CCRF-CEM leukemia) was 1.9 µM. It also gave a TGI (CCRF-CEM leukemia) of 14.9 µM, a GI50 (K-562 leukemia) of 2.47 µM and a TGI (K-562 leukemia) greater than 100 µM. It also gave a GI50 (HT29 colon) of 4.79 µM, a TGI (HT29 colon) of 25 µM and a GI50 (IGROV1 ovarian) of 2.47 µM. For the same compound, the TGI (IGROV1 ovarian) was 16.8 µM, the GI50 (SK-MEL-5 melanoma) was 1.63 µM and the TGI (SK-MEL-5 melanoma) was 3.66 µM. For the same compound, the GI50 (PC-3 prostate) was 1.78 µM, the TGI (PC-3 prostate) was 22.3 µM and the GI50 (SF-268 CNS) was 4.69 µM. The TGI (SF-268 CNS) was 24.2 µM, the GI50 (SN12C renal) was 2.7 µM and the TGI (SN12C renal) was 14.8 µM. The GI50 (TK-10 renal) was 6.19 µM, the TGI (TK-10 renal) was 23.8 µM and the GI50 (NCI-H226 lung) was 1.89 µM. It also gave a TGI (NCI-H226 lung) of 15.1 µM, a GI50 (CAKI-1 renal) of 2.71 µM and a TGI (CAKI-1 renal) of 19.1 µM. The GI50 (MCF7 breast) was 1.93 µM, the TGI (MCF7 breast) was 12.2 µM and the GI50 (NCI-H522 lung) was 5.35 µM. It also gave a TGI (NCI-H522 lung) of 20.5 µM, a GI50 (SR leukemia) of 3.33 µM and a TGI (SR leukemia) of 40.6 µM. For the same compound, the GI50 (NCI-H460 lung) was 0.755 µM, the TGI (NCI-H460 lung) was 10.5 µM and the GI50 (HS 578T breast) was 1.98 µM. The TGI (HS 578T breast) was 13.2 µM, the GI50 (UACC-257 melanoma) was 4.63 µM and the TGI (UACC-257 melanoma) was 19 µM. The GI50 (NCI-H23 lung) was 2.45 µM, the TGI (NCI-H23 lung) was 13.3 µM and the GI50 (SNB-75 CNS) was 4.6 µM. For the same compound, the TGI (SNB-75 CNS) was 20.1 µM, the GI50 (MDA-MB-231 breast) was 5.7 µM and the TGI (MDA-MB-231 breast) was 20 µM. For the same compound, the GI50 (A549 NSCLC) was 2.61 µM, the TGI (A549 NSCLC) was 18.3 µM and the GI50 (SK-MEL-28 melanoma) was 4.67 µM. It also gave a TGI (SK-MEL-28 melanoma) of 17.1 µM, a GI50 (M14 melanoma) of 4.58 µM and a TGI (M14 melanoma) of 19.2 µM. The GI50 (MDA-MB-435) was 4.04 µM, the TGI (MDA-MB-435) was 16.4 µM and the GI50 (SK-MEL-2 melanoma) was 4.35 µM. It also gave a TGI (SK-MEL-2 melanoma) of 18.8 µM, a GI50 (A498 renal) of 1.49 µM and a TGI (A498 renal) of 11.1 µM. It also gave a GI50 (SF-295 CNS) of 1.07 µM, a TGI (SF-295 CNS) of 10.8 µM and a GI50 (MOLT-4 leukemia) of 2.39 µM. The TGI (MOLT-4 leukemia) was 14 µM.
